According to publication PMC8277899, “A novel RyR1-selective inhibitor prevents and rescues sudden death in mouse models of malignant hyperthermia and heat stroke” (Nature Communications, 2021):
Values joined by “and” are separate entries in the source; they are usually repeats but may differ in a detail not shown here. Equal entries are not always repeated. Where two headings read alike, the source gives them in different places.

Test system: soleus muscles from R2509C mice
Assay: Muscle force in vitro, soleus from R2509C mice (caffeine and heat contracture, twitch, tetanus)
Assay type: cell-based, mouse
Settings: for inhibition at 3 µM: Mus musculus, soleus (WT and R2509C groups)

CCCCCCCCn1cc(C(=O)O)c(=O)c2cc3c(cc21)OCO3 [Cpd1, 6,7-(methylenedioxy)-1-octyl-4-quinolone-3-carboxylic acid]
inhibition at 3 µM (at 100 Hz, read-out: inhibition of tetanic contraction force): 35%
inhibition at 3 µM (read-out: inhibition of twitch contraction force): 72%
increase in basal stress in response to caffeine (R2509C soleus, 3 μM Cpd1, caffeine 20 mM): 0.5836 and 0.5932 and 0.4496 and 0.3389 and 0.4718
effect on caffeine-induced contracture tension (R2509C soleus, pretreatment 3 µM, 20 mM caffeine): decreased
effect on heat-induced contracture (R2509C soleus, pretreatment 3 µM, 42 °C): significantly reduced
